Test results published in patent US10738028B2, “Spiro three-membered ring, spiro five-membered ring peptide deformylase inhibitor and use thereof in antibacteria and anti-tumor” (priority 2016, dated 2020).

Key:
Assay type in all cases: cell-based
[1] = tested on: Enterococcus faecalis (EFA); experiment: MIC, two-fold agar dilution (CLSI), clinical isolates
Method in brief: (§1)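 CLSI two-fold agar dilution; MIC of test samples read per tested strain.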

[2] = tested on: Enterococcus faecium (EFM); experiment: as above
Method in brief: as §1

[3] = tested on: Escherichia coli (including ESBLs, non-ESBLs); experiment: as above; conditions: for Anti-bacterial activity (MIC), strain ECO+ 15-1: clinical isolate ECO+ 15-1; for Anti-bacterial activity (MIC), strain ECO+ 15-2: clinical isolate ECO+ 15-2; for Anti-bacterial activity (MIC), strain ECO+ 15-3: clinical isolate ECO+ 15-3; for Anti-bacterial activity (MIC), strain ECO+ 15-4: clinical isolate ECO+ 15-4; for Anti-bacterial activity (MIC), strain ECO− 15-1: clinical isolate ECO− 15-1; for Anti-bacterial activity (MIC), strain ECO− 15-2: clinical isolate ECO− 15-2; for Anti-bacterial activity (MIC), strain ECO− 15-3: clinical isolate ECO− 15-3; for Anti-bacterial activity (MIC), strain ECO− 15-4: clinical isolate ECO− 15-4
Method in brief: as §1

[4] = tested on: Moraxella catarrhalis (BCA); experiment: as above
Method in brief: as §1

[5] = tested on: Streptococcus pneoumoniae (SPN); experiment: as above
Method in brief: as §1

[6] = tested on: methicillin-resistant Staphylococcus aureus (MRSA); experiment: as above; conditions: for Anti-bacterial activity (MIC), strain MRSA 15-1: clinical isolate MRSA 15-1; for Anti-bacterial activity (MIC), strain MRSA 15-2: clinical isolate MRSA 15-2; for Anti-bacterial activity (MIC), strain MRSA 15-3: clinical isolate MRSA 15-3; for Anti-bacterial activity (MIC), strain MRSA 15-4: clinical isolate MRSA 15-4
Method in brief: as §1

[7] = tested on: methicillin-resistant Staphylococcus epidermidis (MRSE); experiment: as above; conditions: for Anti-bacterial activity (MIC), strain MRSE 15-1: clinical isolate MRSE 15-1; for Anti-bacterial activity (MIC), strain MRSE 15-2: clinical isolate MRSE 15-2; for Anti-bacterial activity (MIC), strain MRSE 15-3: clinical isolate MRSE 15-3; for Anti-bacterial activity (MIC), strain MRSE 15-7: clinical isolate MRSE 15-7
Method in brief: as §1

[8] = tested on: methicillin-sensitive Staphylococcus aureus (MSSA); experiment: as above; conditions: for Anti-bacterial activity (MIC), strain MSSA 15-3: clinical isolate MSSA 15-3; for Anti-bacterial activity (MIC), strain MSSA 15-4: clinical isolate MSSA 15-4; for Anti-bacterial activity (MIC), strain MSSA 15-5: clinical isolate MSSA 15-5; for Anti-bacterial activity (MIC), strain MSSA 15-6: clinical isolate MSSA 15-6
Method in brief: as §1

[9] = tested on: methicillin-sensitive Staphylococcus epidermidis (MSSE); experiment: as above; conditions: for Anti-bacterial activity (MIC), strain MSSE 15-3: clinical isolate MSSE 15-3; for Anti-bacterial activity (MIC), strain MSSE 15-4: clinical isolate MSSE 15-4; for Anti-bacterial activity (MIC), strain MSSE 15-5: clinical isolate MSSE 15-5; for Anti-bacterial activity (MIC), strain MSSE 15-6: clinical isolate MSSE 15-6
Method in brief: as §1

[10] = tested on: HCT-116 colorectal cancer cell line; experiment: CCK-8 proliferation inhibition; conditions: 72 hours, CCK-8; for HCT116 inhibition rate/%: concentration of 30 μM, 30 µM
Method in brief: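 Cells were plated overnight at 2000 cells/well, then compound in culture medium was added at a range of final concentrations. After 72 hours in a CO2 incubator, medium was replaced with 1:10 CCK-8 solution for the read-out.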

[11] = tested on: A549 lung cancer cell line; experiment: CCK-8 proliferation inhibition; conditions: for inhibition at 30 µM: A549, 72 h; for inhibition at 30 µM / Inhibition of proliferation, Lung cancer A549: concentration of 30 μM; for Inhibition of proliferation, Lung cancer A549: 72 hours, 30 µM
Method in brief: (§2)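 Plating at 2000 cells/well, then incubation overnight at 37° C. Next, a range of compound concentrations for 72 hours (control 1‰ DMSO). Finally, medium decanted and CCK-8 diluted 1:10 added.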

[12] = tested on: BEL-7402 liver cancer cell line; experiment: CCK-8 proliferation inhibition; conditions: for Inhibition of proliferation, Liver cancer BEL-7402: concentration of 30 μM, 72 hours, 30 µM
Method in brief: as §2

[13] = tested on: MGC-803 gastric cancer cell line; experiment: CCK-8 proliferation inhibition; conditions: for inhibition at 30 µM: MGC-803, 72 h; for inhibition at 30 µM / Inhibition of proliferation, Gastric cancer MGC-803: concentration of 30 μM; for Inhibition of proliferation, Gastric cancer MGC-803: 72 hours, 30 µM
Method in brief: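 Proliferation was measured with 1:10 diluted CCK-8 after a 72-hour incubation with the inhibitors at various final concentrations, using 1‰ DMSO as the control. Cells were plated at 2000 per well. Culture media contained 10% newborn bovine serum: 1640 for Jurkat and MGC-803, F12 for PC3, DMEM high glucose for MCF-7.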

[14] = MIC in vitro anti-bacterial experiments, Gram-positive bacteria; conditions: lowest MIC reached; read-out: minimum inhibitory concentration against Gram-positive bacteria
Source text: 1. The invention adopts the two-fold agar dilution method recommended by the operating procedure of antimicrobial susceptibility testing set by American Clinical and Laboratory Standards Institute (CLSI) to determine the Minimum Inhibitory Concentration (MIC) of the test samples against the tested strains.

## O=C(C[C@@H](CC1CCCC1)C(=O)N1CC2(CC2)C[C@H]1C(=O)Nc1nccs1)NO [Example 72, (S)-5-((R)-2-(cyclopentylmethyl)-4-(hydroxyamino)-4-oxobutanoyl)-N-(thiazol-2-yl)-5-azaspiro[2.4]heptane-6-carboxamide]
[1]; strain EFA 15-1
  Anti-bacterial activity (MIC): 32 µg/mL
[1]; strain EFA 15-2
  Anti-bacterial activity (MIC): 32 µg/mL
[1]; strain EFA 15-3
  Anti-bacterial activity (MIC): 32 µg/mL
[1]; strain EFA 15-4
  Anti-bacterial activity (MIC): 32 µg/mL
[1]; strain EFA 15-5
  Anti-bacterial activity (MIC): 32 µg/mL
[1]; strain EFA 15-6
  Anti-bacterial activity (MIC): 32 µg/mL
[1]; strain EFA 15-9
  Anti-bacterial activity (MIC): 2 µg/mL
[2]; strain EFM 15-1
  Anti-bacterial activity (MIC): 32 µg/mL
[2]; strain EFM 15-2
  Anti-bacterial activity (MIC): 32 µg/mL
[2]; strain EFM 15-3
  Anti-bacterial activity (MIC): 32 µg/mL
[2]; strain EFM 15-4
  Anti-bacterial activity (MIC): 0.5 µg/mL
[2]; strain EFM 15-5
  Anti-bacterial activity (MIC): 0.125 µg/mL
[2]; strain EFM 15-6
  Anti-bacterial activity (MIC): 0.5 µg/mL
[3]
  Anti-bacterial activity (MIC), strain ECO+ 15-1: 16 µg/mL
  Anti-bacterial activity (MIC), strain ECO+ 15-2: 16 µg/mL
  Anti-bacterial activity (MIC), strain ECO+ 15-3: 16 µg/mL
  Anti-bacterial activity (MIC), strain ECO+ 15-4: 16 µg/mL
  Anti-bacterial activity (MIC), strain ECO− 15-1: 16 µg/mL
  Anti-bacterial activity (MIC), strain ECO− 15-2: 16 µg/mL
  Anti-bacterial activity (MIC), strain ECO− 15-3: 16 µg/mL
  Anti-bacterial activity (MIC), strain ECO− 15-4: 16 µg/mL
[4]; strain BCA 14-1
  Anti-bacterial activity (MIC): 0.25 µg/mL
[4]; strain BCA 14-4
  Anti-bacterial activity (MIC): 0.5 µg/mL
[4]; strain BCA 14-5
  Anti-bacterial activity (MIC): 0.125 µg/mL
[4]; strain BCA 14-6
  Anti-bacterial activity (MIC): 0.125 µg/mL
[4]; strain BCA 14-7
  Anti-bacterial activity (MIC): 0.5 µg/mL
[4]; strain BCA 14-8
  Anti-bacterial activity (MIC): 0.25 µg/mL
[4]; strain BCA 14-10
  Anti-bacterial activity (MIC): 0.125 µg/mL
[5]; strain SPN 16-2
  Anti-bacterial activity (MIC): 0.5 µg/mL
[5]; strain SPN 16-4
  Anti-bacterial activity (MIC): 0.25 µg/mL
[6]
  Anti-bacterial activity (MIC), strain MRSA 15-1: 0.06 µg/mL
  Anti-bacterial activity (MIC), strain MRSA 15-2: 0.125 µg/mL
  Anti-bacterial activity (MIC), strain MRSA 15-3: 0.06 µg/mL
  Anti-bacterial activity (MIC), strain MRSA 15-4: 0.125 µg/mL
[7]
  Anti-bacterial activity (MIC), strain MRSE 15-1: 0.03 µg/mL
  Anti-bacterial activity (MIC), strain MRSE 15-2: 0.125 µg/mL
  Anti-bacterial activity (MIC), strain MRSE 15-3: 0.125 µg/mL
  Anti-bacterial activity (MIC), strain MRSE 15-7: 0.125 µg/mL
[8]
  Anti-bacterial activity (MIC), strain MSSA 15-3: 0.125 µg/mL
  Anti-bacterial activity (MIC), strain MSSA 15-4: 0.06 µg/mL
  Anti-bacterial activity (MIC), strain MSSA 15-5: 0.03 µg/mL
  Anti-bacterial activity (MIC), strain MSSA 15-6: 16 µg/mL
[9]
  Anti-bacterial activity (MIC), strain MSSE 15-3: 0.06 µg/mL
  Anti-bacterial activity (MIC), strain MSSE 15-4: 0.125 µg/mL
  Anti-bacterial activity (MIC), strain MSSE 15-5: 0.125 µg/mL
  Anti-bacterial activity (MIC), strain MSSE 15-6: < 0.008 µg/mL
[10]
  HCT116 inhibition rate/%: 75%
[11]; Homo sapiens
  inhibition at 30 µM: > 50%
[11]
  Inhibition of proliferation, Lung cancer A549: 50%
[12]
  Inhibition of proliferation, Liver cancer BEL-7402: 76%
[13]; Homo sapiens
  inhibition at 30 µM: > 50%
[13]
  Inhibition of proliferation, Gastric cancer MGC-803: 63%
[14]
  MIC: < 0.008 µg/mL

## O=C(C[C@@H](CC1CCCC1)C(=O)N1CC2(CC2)C[C@H]1C(=O)Nc1nc(C(F)(F)F)cs1)NO [Example 73]
[1]; strain EFA 15-1
  Anti-bacterial activity (MIC): 2 µg/mL
[1]; strain EFA 15-2
  Anti-bacterial activity (MIC): 2 µg/mL
[1]; strain EFA 15-3
  Anti-bacterial activity (MIC): 2 µg/mL
[1]; strain EFA 15-4
  Anti-bacterial activity (MIC): 2 µg/mL
[1]; strain EFA 15-5
  Anti-bacterial activity (MIC): 2 µg/mL
[1]; strain EFA 15-6
  Anti-bacterial activity (MIC): 2 µg/mL
[1]; strain EFA 15-9
  Anti-bacterial activity (MIC): 2 µg/mL
[2]; strain EFM 15-1
  Anti-bacterial activity (MIC): 1 µg/mL
[2]; strain EFM 15-2
  Anti-bacterial activity (MIC): 1 µg/mL
[2]; strain EFM 15-3
  Anti-bacterial activity (MIC): 0.125 µg/mL
[2]; strain EFM 15-4
  Anti-bacterial activity (MIC): 1 µg/mL
[2]; strain EFM 15-5
  Anti-bacterial activity (MIC): 0.125 µg/mL
[2]; strain EFM 15-6
  Anti-bacterial activity (MIC): 1 µg/mL
[3]
  Anti-bacterial activity (MIC), strain ECO+ 15-1: 16 µg/mL
  Anti-bacterial activity (MIC), strain ECO+ 15-2: 32 µg/mL
  Anti-bacterial activity (MIC), strain ECO+ 15-3: 32 µg/mL
  Anti-bacterial activity (MIC), strain ECO+ 15-4: 32 µg/mL
  Anti-bacterial activity (MIC), strain ECO− 15-1: 32 µg/mL
  Anti-bacterial activity (MIC), strain ECO− 15-2: 32 µg/mL
  Anti-bacterial activity (MIC), strain ECO− 15-3: 32 µg/mL
  Anti-bacterial activity (MIC), strain ECO− 15-4: 32 µg/mL
[4]; strain BCA 14-1
  Anti-bacterial activity (MIC): 1 µg/mL
[4]; strain BCA 14-4
  Anti-bacterial activity (MIC): 1 µg/mL
[4]; strain BCA 14-5
  Anti-bacterial activity (MIC): 0.25 µg/mL
[4]; strain BCA 14-6
  Anti-bacterial activity (MIC): 1 µg/mL
[4]; strain BCA 14-7
  Anti-bacterial activity (MIC): 0.125 µg/mL
[4]; strain BCA 14-8
  Anti-bacterial activity (MIC): 0.25 µg/mL
[4]; strain BCA 14-10
  Anti-bacterial activity (MIC): 0.125 µg/mL
[5]; strain SPN 16-2
  Anti-bacterial activity (MIC): 1 µg/mL
[6]
  Anti-bacterial activity (MIC), strain MRSA 15-1: 0.03 µg/mL
  Anti-bacterial activity (MIC), strain MRSA 15-2: 0.06 µg/mL
  Anti-bacterial activity (MIC), strain MRSA 15-3: 0.06 µg/mL
  Anti-bacterial activity (MIC), strain MRSA 15-4: 0.06 µg/mL
[7]
  Anti-bacterial activity (MIC), strain MRSE 15-1: < 0.008 µg/mL
  Anti-bacterial activity (MIC), strain MRSE 15-2: 0.015 µg/mL
  Anti-bacterial activity (MIC), strain MRSE 15-3: < 0.008 µg/mL
  Anti-bacterial activity (MIC), strain MRSE 15-7: 0.06 µg/mL
[8]
  Anti-bacterial activity (MIC), strain MSSA 15-3: 0.06 µg/mL
  Anti-bacterial activity (MIC), strain MSSA 15-4: 0.06 µg/mL
  Anti-bacterial activity (MIC), strain MSSA 15-5: 0.03 µg/mL
  Anti-bacterial activity (MIC), strain MSSA 15-6: 0.06 µg/mL
[9]
  Anti-bacterial activity (MIC), strain MSSE 15-3: 0.015 µg/mL
  Anti-bacterial activity (MIC), strain MSSE 15-4: < 0.008 µg/mL
  Anti-bacterial activity (MIC), strain MSSE 15-5: < 0.008 µg/mL
  Anti-bacterial activity (MIC), strain MSSE 15-6: < 0.008 µg/mL
[10]; Homo sapiens, HCT-116
  IC50: 6.21 µM
[10]
  HCT116 inhibition rate/%: 78%
[11]; Homo sapiens
  inhibition at 30 µM: > 50%
[11]; Homo sapiens, A549, 72 hours
  IC50: 5.12 µM
[11]
  Inhibition of proliferation, Lung cancer A549: 63%
[12]; Homo sapiens, Bel-7402, 72 hours
  IC50: 10 µM
[12]
  Inhibition of proliferation, Liver cancer BEL-7402: 81%
[13]; Homo sapiens
  inhibition at 30 µM: > 50%
[13]; Homo sapiens, MGC-803, 72 hours
  IC50: 12.7 µM
[13]
  Inhibition of proliferation, Gastric cancer MGC-803: 65%
[14]
  MIC: < 0.008 µg/mL
